Data on 28 molecules can be found in patent publication US20230312587A1, “PTERIDINONE COMPOUNDS AND USES THEREOF” (Vertex Pharmaceutical Incorporated, priority 2018, published 2023).

Read-outs that look alike come from different tables or passages of the source.

This assay relates to β-catenin-TCF-mediated reporter transcription activity in Colo 205 cells. The assay can be described thus: Colo 205 reporter assay (TCF/LEF luciferase). The assay is classed as cell-based. The settings on record: Colo 205 TCF/LEF luciferase reporter, five hours after addition of compound, read-out: TCF reporter Colo205 IC50. In a few lines:
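Luciferase signal from a TCF/LEF-driven reporter, stably integrated in Colo 205 colon cancer cells, was measured 5 h after compound addition.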
On the technique in general: Reporter assays use an easily measured gene product as a stand-in for the process of interest.

What is called IC50 is the concentration at which inhibition is half-maximal. Take `Cc1nc(NC2CN(C(=O)Cc3cccc(F)c3F)C2)nc2c1NC(=O)[C@H](C(C)C)N2C` [Compound 632, (S)-2-((1-(2-(2,3-difluorophenyl)acetyl)azetidin-3-yl)amino)-7-isopropyl-4,8-dimethyl-7,8-dihydropteridin-6(5H)-one]: the IC50 (Homo sapiens, COLO 205, 5 h) was in the range of 300 to 1000 nM.
`Cc1nc(NC2CN(C(=O)c3cnc(Cl)s3)C2)nc2c1NC(=O)[C@H](C(C)C)N2C` [Compound 633, (S)-2-((1-(2-chlorothiazole-5-carbonyl)azetidin-3-yl)amino)-7-isopropyl-4,8-dimethyl-7,8-dihydropteridin-6(5H)-one]: the IC50 (Homo sapiens, COLO 205, 5 h) was 1000 to 5000 nM.
Still for that read-out and setting: next, `CO[C@@H](C(=O)N1CC(Nc2nc(C)c3c(n2)N(C)[C@@H](C(C)C)C(=O)N3)C1)c1ccccc1` [Compound 634, (S)-7-isopropyl-2-((1-((R)-2-methoxy-2-phenylacetyl)azetidin-3-yl)amino)-4,8-dimethyl-7,8-dihydropteridin-6(5H)-one]: at least 5000 nM; `Cc1nc(NC2CN(C(=O)c3cccc(C(F)(F)F)c3)C2)nc2c1NC(=O)[C@H](C(C)C)N2C` [Compound 635, (S)-7-isopropyl-4,8-dimethyl-2-((1-(3-(trifluoromethyl)benzoyl)azetidin-3-yl)amino)-7,8-dihydropteridin-6(5H)-one]: below 300 nM.
On the same count and under the same terms, next, `Cc1nc(NC2CN(C(=O)[C@H]3CCCO3)C2)nc2c1NC(=O)[C@H](C(C)C)N2C` [Compound 636, (S)-7-isopropyl-4,8-dimethyl-2-((1-((R)-tetrahydrofuran-2-carbonyl)azetidin-3-yl)amino)-7,8-dihydropteridin-6(5H)-one]: at least 5000 nM; `Cc1nc(NC2CN(C(=O)C3CCC(C)O3)C2)nc2c1NC(=O)[C@H](C(C)C)N2C` (stereo partly drawn) [Compound 637, (7S)-7-isopropyl-4,8-dimethyl-2-((1-(5-methyltetrahydrofuran-2-carbonyl)azetidin-3-yl)amino)-7,8-dihydropteridin-6(5H)-one]: at least 5000 nM.
On the same count and under the same terms, with `Cc1nc(NC2CN(C(=O)C3(C)CCCO3)C2)nc2c1NC(=O)[C@H](C(C)C)N2C` (stereo partly drawn) [Compound 638, (7S)-7-isopropyl-4,8-dimethyl-2-((1-(2-methyltetrahydrofuran-2-carbonyl)azetidin-3-yl)amino)-7,8-dihydropteridin-6(5H)-one] the figure was at least 5000 nM; with `Cc1nc(NC2CN(C(=O)C3CC4CCC3C4)C2)nc2c1NC(=O)[C@H](C(C)C)N2C` (stereo partly drawn) [Compound 639, (7S)-2-((1-(bicyclo[2.2.1]heptane-2-carbonyl)azetidin-3-yl)amino)-7-isopropyl-4,8-dimethyl-7,8-dihydropteridin-6(5H)-one], 1000 to 5000 nM; with `Cc1nc(NC2CN(C(=O)c3ncccn3)C2)nc2c1NC(=O)[C@H](C(C)C)N2C` [Compound 640, (S)-7-isopropyl-4,8-dimethyl-2-((1-(pyrimidine-2-carbonyl)azetidin-3-yl)amino)-7,8-dihydropteridin-6(5H)-one], at least 5000 nM.
Consider `Cc1nc(NC2CN(C(=O)[C@@H](C)c3ccccc3)C2)nc2c1NC(=O)[C@H](C(C)C)N2C` [Compound 641, (S)-7-isopropyl-4,8-dimethyl-2-((1-((S)-2-phenylpropanoyl)azetidin-3-yl)amino)-7,8-dihydropteridin-6(5H)-one], for which, where the note is “Homo sapiens, COLO 205, 5 h”, the IC50 was at least 5000 nM.
Still for that read-out and setting: with `Cc1nc(NC2CN(C(=O)[C@@H]3CCCO3)C2)nc2c1NC(=O)[C@H](C(C)C)N2C` [Compound 642, (S)-7-isopropyl-4,8-dimethyl-2-((1-((S)-tetrahydrofuran-2-carbonyl)azetidin-3-yl)amino)-7,8-dihydropteridin-6(5H)-one] the figure was at least 5000 nM.
Still for that read-out and setting: next, `Cc1nc(N[C@H]2C[C@@H](Oc3cnc(C(F)(F)F)nc3)C2)nc2c1NC(=O)[C@H](C(C)C)N2C` [Compound 644, (S)-7-isopropyl-4,8-dimethyl-2-((cis-3-((2-(trifluoromethyl)pyrimidin-5-yl)oxy)cyclobutyl)amino)-7,8-dihydropteridin-6(5H)-one]: below 300 nM; `CC[C@H]1C(=O)Nc2c(C)nc(N[C@H]3C[C@H](Oc4cnc(C(F)(F)F)nc4)C3)nc2N1C` [Compound 645, (S)-7-ethyl-4,8-dimethyl-2-((trans-3-((2-(trifluoromethyl)pyrimidin-5-yl)oxy)cyclobutyl)amino)-7,8-dihydropteridin-6(5H)-one]: below 300 nM; `CC[C@H]1C(=O)Nc2c(C)nc(N[C@H]3C[C@@H](COc4ccc(C(F)(F)F)nc4)C3)nc2N1C` [Compound 646, (S)-7-ethyl-4,8-dimethyl-2-((cis-3-(((6-(trifluoromethyl)pyridin-3-yl)oxy)methyl)cyclobutyl)amino)-7,8-dihydropteridin-6(5H)-one]: below 300 nM.
Still for that read-out and setting: next, `CO[C@H](C)[C@H]1C(=O)Nc2c(C)nc(N[C@H]3C[C@@H](Nc4cnc(C(F)(F)F)cn4)C3)nc2N1C` [Compound 647, (S)-7-((R)-1-methoxyethyl)-4,8-dimethyl-2-((cis-3-((5-(trifluoromethyl)pyrazin-2-yl)amino)cyclobutyl)amino)-7,8-dihydropteridin-6(5H)-one]: below 300 nM; `CC[C@H]1C(=O)Nc2c(C)nc(N[C@H]3C[C@@H](Nc4cnc(C(F)(F)F)cn4)C3)nc2N1C` [Compound 648, (S)-7-ethyl-4,8-dimethyl-2-((cis-3-((5-(trifluoromethyl)pyrazin-2-yl)amino)cyclobutyl)amino)-7,8-dihydropteridin-6(5H)-one]: below 300 nM; `Cc1nc(NC2CN(Cc3ccc(C(F)(F)F)nc3)C2)nc2c1NC(=O)[C@H](C(C)C)N2C` [Compound 649, (S)-7-isopropyl-4,8-dimethyl-2-((1-((6-(trifluoromethyl)pyridin-3-yl)methyl)azetidin-3-yl)amino)-7,8-dihydropteridin-6(5H)-one]: below 300 nM.
For `Cc1nc(NC2CN(Cc3ccc(C(F)(F)F)cc3)C2)nc2c1NC(=O)[C@H](C(C)C)N2C` [Compound 650, (S)-7-isopropyl-4,8-dimethyl-2-((1-(4-(trifluoromethyl)benzyl)azetidin-3-yl)amino)-7,8-dihydropteridin-6(5H)-one], the 50% inhibitory concentration (IC50) (Homo sapiens, COLO 205, 5 h) is below 300 nM.
Same read-out and setting: next, `CO[C@H](C)[C@H]1C(=O)Nc2c(C)nc(N[C@H]3C[C@@H](N(C)c4cnc(C(F)(F)F)cn4)C3)nc2N1C` [Compound 651, (S)-7-((R)—1-methoxyethyl)-4,8-dimethyl-2-((cis-3-(methyl(5-(trifluoromethyl)pyrazin-2-yl)amino)cyclobutyl)amino)-7,8-dihydropteridin-6(5H)-one]: 1000 to 5000 nM.
As to `Cc1nc(N[C@H]2C[C@@H](N(C)c3cnc(C(F)(F)F)cn3)C2)nc2c1NC(=O)[C@H](C(C)C)N2C` [Compound 652, (S)-7-isopropyl-4,8-dimethyl-2-((cis-3-(methyl(5-(trifluoromethyl)pyrazin-2-yl)amino)cyclobutyl)amino)-7,8-dihydropteridin-6(5H)-one], the IC50 (Homo sapiens, COLO 205, 5 h) is 300 to 1000 nM.
The same measure, in the same setting: with `Cc1nc(N[C@H]2C[C@@H](N(C)c3cnc(C(F)(F)F)cn3)C2)nc2c1NC(=O)[C@H](C)N2C` [Compound 653, (S)-4,7,8-trimethyl-2-((cis-3-(methyl(5-(trifluoromethyl)pyrazin-2-yl)amino)cyclobutyl)amino)-7,8-dihydropteridin-6(5H)-one] the figure was at least 5000 nM; with `Cc1nc(N[C@H]2C[C@H](N(C)c3cnc(C(F)(F)F)cn3)C2)nc2c1NC(=O)[C@H](C(C)C)N2C` [Compound 655, (7S)-7-isopropyl-4,8-dimethyl-2-((trans-3-(methyl(5-(trifluoromethyl)pyrazin-2-yl)amino)cyclobutyl)amino)-7,8-dihydropteridin-6(5H)-one], below 300 nM; with `CO[C@H](C)[C@H]1C(=O)Nc2c(C)nc(N[C@H]3C[C@H](Oc4cnc(C(F)(F)F)nc4)C3)nc2N1C` [Compound 657, (S)-7-((R)—1-methoxyethyl)-4,8-dimethyl-2-((trans-3-((2-(trifluoromethyl)pyrimidin-5-yl)oxy)cyclobutyl)amino)-7,8-dihydropteridin-6(5H)-one], below 300 nM.
On the same count and under the same terms, with `CO[C@H](C)[C@H]1C(=O)Nc2c(C)nc(NCc3cnn(Cc4cc(F)c(F)c(F)c4)c3)nc2N1C` [Compound 659, (S)-7-((R)-1-methoxyethyl)-4,8-dimethyl-2-(((1-(3,4,5-trifluorobenzyl)-1H-pyrazol-4-yl)methyl)amino)-7,8-dihydropteridin-6(5H)-one] the figure was below 300 nM.
In the case of `Cc1nc(N[C@H]2C[C@@H](Cc3nc(C(F)(F)F)no3)C2)nc2c1NC(=O)[C@H](C(C)C)N2C` [Compound 660, (S)-7-isopropyl-4,8-dimethyl-2-(((1s,3R)-3-((3-(trifluoromethyl)-1,2,4-oxadiazol-5-yl)methyl)cyclobutyl)amino)-7,8-dihydropteridin-6(5H)-one], the IC50 was below 300 nM.
For the molecule `COC1(C2C(=O)Nc3c(C)nc(NCc4cnn(Cc5ccc(C(F)(F)F)nc5)c4)nc3N2C)CCC1` (stereo not shown) [Compound 661, 7-(1-methoxycyclobutyl)-4,8-dimethyl-2-(((1-((6-(trifluoromethyl)pyridin-3-yl)methyl)-1H-pyrazol-4-yl)methyl)amino)-7,8-dihydropteridin-6(5H)-one], the IC50 (Homo sapiens, COLO 205, 5 h) is below 300 nM.
In the case of `Cc1nc(NCc2cnn(Cc3ccc(C(F)(F)F)nc3)c2)nc2c1NC(=O)C1(CCOC1)N2C` (stereo not shown) [Compound 662, 4′,8′-dimethyl-2′-(((1-((6-(trifluoromethyl)pyridin-3-yl)methyl)-1H-pyrazol-4-yl)methyl)amino)-4,5,5′,8′-tetrahydro-2H,6′H-spiro[furan-3,7′-pteridin]-6′-one], the IC50 lay within 300 to 1000 nM.
Same read-out and setting: with `Cc1nc(NCc2cnn(Cc3ccc(C(F)(F)F)nc3)c2)nc2c1NC(=O)C1(CCOC1)N2C` (stereo not shown) [Compound 663, 4′,8′-dimethyl-2′-(((1-((6-(trifluoromethyl)pyridin-3-yl)methyl)-1H-pyrazol-4-yl)methyl)amino)-4,5,5′,8′-tetrahydro-2H,6′H-spiro[furan-3,7′-pteridin]-6′-one] the figure was 1000 to 5000 nM.
